We go through 25 compounds from patent US20120157401A1, “METHODS FOR TREATING NEUROFIBROMATOSIS” (PTC Therapeutics, Inc., priority 2009, published 2012).

The first experiment concerns hypoxia-inducible endogenous VEGF expression. The experiment in a line: Hypoxia-inducible endogenous VEGF expression ELISA in HeLa cells, dose-response EC50 (Table 3). To be noted: Homo sapiens, HeLa, read-out: ELISA EC50 μM. The format is cell-based, human. Put shortly:
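HeLa cells kept 24-48 h under hypoxia (1% O2, 5% CO2, nitrogen balance) with or without compound, e.g. seven concentrations; secreted VEGF in conditioned medium quantified by ELISA against a standard curve. Parallel Cell Titer Glo viability under identical conditions excludes cytotoxicity.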
(In general: ELISA stands for enzyme-linked immunosorbent assay.)
One may read the EC50 as the midpoint of the concentration-response curve. For `CN1CCC(Oc2ccc([C@H]3c4[nH]c5ccc(Cl)cc5c4CCN3C(=O)Oc3ccc(Cl)cc3)cc2)CC1` [Compound 1694], the EC50 was below 0.008 µM.

Regarding `COCCN(C)CCCOc1ccc(C2c3[nH]c4ccc(Cl)cc4c3CCN2C(=O)Oc2ccc(Cl)cc2)cc1` (stereo not shown) [Compound 908], the EC50 is below 0.008 µM. Same read-out and setting: the figure for `COc1ccc(C2c3[nH]c4ccc(Cl)cc4c3CCN2C(=O)Oc2ccc(Cl)cc2)cc1OCCCN1CCOCC1` (stereo not shown) [Compound 1096] is 0.2 to 1 µM. The same measure, in the same setting: the figure for `CN(C)CCCOc1ccc(C2c3[nH]c4ccc(Cl)cc4c3CCN2C(=O)Oc2ccc(Cl)cc2)cc1` (stereo not shown) [Compound 479] is 0.04 to 0.2 µM; for `COc1ccc(OC(=O)N2CCc3c([nH]c4ccc(Cl)cc34)C2c2ccc(OCC(=O)NCCN3CCOCC3)cc2)cc1` (stereo not shown) [Compound 1026] it is 0.008 to 0.04 µM; for `COCCN1CCN(C(=O)COc2ccc(C3c4[nH]c5ccc(Cl)cc5c4CCN3C(=O)Oc3ccc(OC)cc3)cc2)CC1` (stereo not shown) [Compound 1025] it is 0.04 to 0.2 µM. Same read-out and setting: the figure for `CN1CCN(CCCCCCOc2ccc(C3c4[nH]c5ccc(Cl)cc5c4CCN3C(=O)Oc3ccc(Cl)cc3)cc2)CC1` (stereo not shown) [Compound 788] is 0.008 to 0.04 µM; for `O=C1CN(CCCOc2ccc(C3c4[nH]c5ccc(Cl)cc5c4CCN3C(=O)Oc3ccc(Cl)cc3)cc2)C(=O)N1` (stereo not shown) [Compound 1672] it is below 0.008 µM.

Still in this experiment, the particulars now being: Homo sapiens; HeLa cells, hypoxic conditions (1% O2), 24-48 hours, VEGF in conditioned media; read-out: ELISA EC50.
Take `O=C(Oc1ccc(Cl)cc1)N1CCc2c([nH]c3ccc(Cl)cc23)C1c1ccc(OCCCn2ccnc2)cc1` (stereo not shown) [Compound 917]: the EC50 is below 0.008 µM. The same measure, in the same setting: the figure for `COc1ccc(C2c3[nH]c4ccc(Cl)cc4c3CCN2C(=O)Oc2ccc(F)cc2)cc1` (stereo not shown) [Compound 401] is below 0.008 µM; for `COc1ccc(OC(=O)N2CCc3c([nH]c4ccc(Cl)cc34)C2c2ccc(OC)cc2F)cc1` (stereo not shown) [Compound 1267] it is 0.008 to 0.04 µM; for `COCCOCCOc1ccc(C2c3[nH]c4ccc(Cl)cc4c3CCN2C(=O)Oc2ccccc2)cc1` (stereo not shown) [Compound 670] it is below 0.008 µM. The same measure, in the same setting: the value for `O=C(Oc1ccc(Cl)cc1)N1CCc2c([nH]c3ccc(Cl)cc23)C1c1ccc(OC(CO)CO)cc1` (stereo not shown) [Compound 1231] was 0.008 to 0.04 µM; that for `COc1ccc(C2c3[nH]c4ccc(OCc5ccccc5)cc4c3CCN2C(=O)Oc2ccc(Cl)cc2)cc1` (stereo not shown) [Compound 616] was 0.2 to 1 µM; that for `COCCOC(=O)Nc1ccc(C2c3[nH]c4ccc(Cl)cc4c3CCN2C(=O)Oc2ccc(Cl)cc2)cc1` (stereo not shown) [Compound 470] was 0.008 to 0.04 µM. Turning to `O=C(Oc1ccc(Cl)cc1)N1CCc2c([nH]c3ccc(Cl)cc23)C1c1ccc(O)cc1` (stereo not shown) [Compound 577], the EC50 was 0.04 to 0.2 µM.

With `COc1ccc(OC(=O)N2CCc3c([nH]c4ccc(Cl)cc34)C2c2ccc(OCCCn3ccnn3)cc2)cc1` (stereo not shown) [Compound 1031], the EC50 was below 0.008 µM. On the same count and under the same terms, the figure for `C=CCOc1ccc(C2c3[nH]c4ccc(Cl)cc4c3CCN2C(=O)Oc2ccc(OC)cc2)cc1` (stereo not shown) [Compound 432] is below 0.008 µM; for `O=C(Oc1ccc(F)cc1)N1CCc2c([nH]c3ccc(Cl)cc23)C1c1ccc(OCCn2cccn2)cc1` (stereo not shown) [Compound 836] it is 0.008 to 0.04 µM; for `COCCOCCOc1ccc(C2c3[nH]c4ccc(Cl)cc4c3CCN2C(=O)Oc2ccc(Br)cc2)cc1` (stereo not shown) [Compound 680] it is below 0.008 µM. Same read-out and setting: the value for `O=C(Oc1ccc(Cl)cc1)N1CCc2c([nH]c3ccc(Cl)cc23)[C@@H]1c1ccc(OC(CO)CO)cc1` [Compound 1259] was 0.008 to 0.04 µM; that for `COc1cc(C2c3[nH]c4ccc(Cl)cc4c3CCN2C(=O)Oc2ccccc2)ccc1OCCCn1nccn1` (stereo not shown) [Compound 1145] was 0.008 to 0.04 µM.

The same experiment, now with this note: Homo sapiens; HeLa cells, hypoxic conditions (1% O2), VEGF ELISA of conditioned media; read-out: ELISA EC50.
For the compound `O=C(NCC(O)CCOc1ccc([C@H]2c3[nH]c4ccc(Cl)cc4c3CCN2C(=O)Oc2ccc(Cl)cc2)cc1)c1ccccn1` (stereo partly shown) [Compound 1629], the EC50 was below 0.008 µM.

With `Cc1cc(N)nn1CCOc1ccc(C2c3[nH]c4ccc(Cl)cc4c3CCN2C(=O)Oc2ccc(F)cc2)cc1` (stereo not shown) [Compound 1414], the EC50 was below 0.008 µM. On the same count and under the same terms, the value for `CC(=O)OCC1OC(n2cc(CCOc3ccc([C@H]4c5[nH]c6ccc(Cl)cc6c5CCN4C(=O)Oc4ccc(Cl)cc4)cc3)nn2)C(OC(C)=O)C(OC(C)=O)C1OC(C)=O` (stereo partly shown) [Compound 1677] was 0.04 to 0.2 µM.
